Active and inactive are the calls of the source. The rule behind the calls is not given here.

The series relates to rodent carcinogenicity bioassays, tumor incidence. In words: CCRIS carcinogenicity studies. Summed up:
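NCI-built, expert-reviewed records of carcinogenicity and related test outcomes (mutagenicity, tumor promotion/inhibition) compiled from published and report sources, historical span 1985-2011, not updated.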

Take `O=NN(c1ccccc1)c1ccccc1`: the carcinogen call (Species: MOUSE, Strain/Sex: B6C3F1/FEMALE, Route: ORAL, Dose: 0, 2315, 5741 PPM IN DIET, TWA, Dose: 0, 2315, 5741 PPM IN DIET, TWA) is “inactive; negative”; the carcinogen call (Species: MOUSE, Strain/Sex: B6C3F1/MALE, Route: ORAL, Dose: 0, 10000, 20000 PPM IN DIET, Dose: 0, 10000, 20000 PPM IN DIET) was “inactive; negative”; the carcinogen call (Species: RAT, Strain/Sex: F344/FEMALE, Route: ORAL, Dose: 0, 1000, 4000 PPM IN DIET, Dose: 0, 1000, 4000 PPM IN DIET, Tumor Site: Type of Lesion: URINARY BLADDER: TRANSITIONAL CELL CARCINOMA) was “active; positive”; the carcinogen call (Species: RAT, Strain/Sex: F344/MALE, Route: ORAL, Dose: 0, 1000, 4000 PPM IN DIET, Dose: 0, 1000, 4000 PPM IN DIET, Tumor Site: Type of Lesion: INTEGUMENTARY SYSTEM: FIBROMA, URINARY BLADDER: TRANSITIONAL CELL CARCINOMA) was “active; positive”.

On to `CC1=CC(=O)CC(C)(C)C1`, for which the carcinogen call is “inactive; negative” (Species: MOUSE, Strain/Sex: B6C3F1/FEMALE, Route: GAVAGE, Dose: 0, 250, 500 MG/KG IN CORN OIL 5 D/WK FOR 103 WK (STUDY DURATION: 105 WK), Dose: 0, 250, 500 MG/KG IN CORN OIL 5 D/WK FOR 103 WK (STUDY DURATION: 105 WK)); “equivocal” (Species: MOUSE, Strain/Sex: B6C3F1/MALE, Route: GAVAGE, Dose: 0, 250, 500 MG/KG IN CORN OIL 5 D/WK FOR 103 WK (STUDY DURATION: 105 WK), Dose: 0, 250, 500 MG/KG IN CORN OIL 5 D/WK FOR 103 WK (STUDY DURATION: 105 WK), Tumor Site: Type of Lesion: LIVER: HEPATOCELLULAR ADENOMA OR CARCINOMA, INTEGUMENTARY SYSTEM: MESENCHYMAL TUMOR, HEMATOPOIETIC SYSTEM: MALIGNANT LYM, Tumor Site: Type of Lesion: LIVER: HEPATOCELLULAR ADENOMA OR CARCINOMA, INTEGUMENTARY SYSTEM: MESENCHYMAL TUMOR, HEMATOPOIETIC SYSTEM: MALIGNANT LYM); “inactive; negative” (Species: RAT, Strain/Sex: F344/FEMALE, Route: GAVAGE, Dose: 0, 250, 500 MG/KG IN CORN OIL 5 D/WK FOR 103 WK (STUDY DURATION: 105 WK), Dose: 0, 250, 500 MG/KG IN CORN OIL 5 D/WK FOR 103 WK (STUDY DURATION: 105 WK)); “active; positive” (Species: RAT, Strain/Sex: F344/MALE, Route: GAVAGE, Dose: 0, 250, 500 MG/KG IN CORN OIL 5 D/WK FOR 103 WK (STUDY DURATION: 105 WK), Dose: 0, 250, 500 MG/KG IN CORN OIL 5 D/WK FOR 103 WK (STUDY DURATION: 105 WK), Tumor Site: Type of Lesion: PREPUTIAL GLAND: CARCINOMA, KIDNEY: TUBULAR CELL ADENOMA OR ADENOCARCINOMA, PANCREAS: ACINAR CELL ADENOMA, Tumor Site: Type of Lesion: PREPUTIAL GLAND: CARCINOMA, KIDNEY: TUBULAR CELL ADENOMA OR ADENOCARCINOMA, PANCREAS: ACINAR CELL ADENOMA).

Take `[CH3][Hg][Cl]`: the carcinogen call was “inactive; negative” (Species: MOUSE, Strain/Sex: B6C3F1/FEMALE, Route: ORAL, Dose: 0, 0.4, 2, 10 PPM IN DIET FOR 104 WK (STUDY DURATION: 104 WK), Dose: 0, 0.4, 2, 10 PPM IN DIET FOR 104 WK (STUDY DURATION: 104 WK)); “active; positive” (Species: MOUSE, Strain/Sex: B6C3F1/MALE, Route: ORAL, Dose: 0, 0.4, 2, 10 PPM IN DIET FOR 104 WK (STUDY DURATION: 104 WK), Dose: 0, 0.4, 2, 10 PPM IN DIET FOR 104 WK (STUDY DURATION: 104 WK), Tumor Site: Type of Lesion: KIDNEY: CARCINOMA, ADENOMA); “inactive; negative” (Species: MOUSE, Strain/Sex: ICR/FEMALE, Route: ORAL, Dose: 0, 0.4, 2, 10 PPM IN DIET FOR 104 WK (STUDY DURATION: 104 WK), Dose: 0, 0.4, 2, 10 PPM IN DIET FOR 104 WK (STUDY DURATION: 104 WK)); “inactive; negative” (Species: MOUSE, Strain/Sex: ICR/FEMALE, Route: ORAL, Dose: 0, 10 PPM IN BASAL DIET ADMINISTERED TO SPAYED MICE FOR 80 WK (STUDY DURATION: 80 WK)); “inactive; negative” (Species: MOUSE, Strain/Sex: ICR/FEMALE, Route: ORAL, Dose: 0, 10 PPM IN BASAL DIET FOR 80 WK (STUDY DURATION: 80 WK)); “inactive; negative” (Species: MOUSE, Strain/Sex: ICR/FEMALE, Route: ORAL, Dose: 0, 15 PPM IN DIET FOR 78 WK (STUDY DURATION: 78 WK)). Also, the carcinogen call reads like this: (Species: MOUSE, Strain/Sex: ICR/MALE, Route: ORAL, Dose: 0, 0.4, 2, 10 PPM IN DIET FOR 104 WK (STUDY DURATION: 104 WK), Dose: 0, 0.4, 2, 10 PPM IN DIET FOR 104 WK (STUDY DURATION: 104 WK), Tumor Site: Type of Lesion: KIDNEY: ADENOCARCINOMA) “active; positive”; (Species: MOUSE, Strain/Sex: ICR/MALE, Route: ORAL, Dose: 0, 10 PPM IN BASAL DIET ADMINISTERED TO CASTRATED MICE FOR 80 WK (STUDY DURATION: 80 WK)) “inactive; negative”; (Species: MOUSE, Strain/Sex: ICR/MALE, Route: ORAL, Dose: 0, 10 PPM IN BASAL DIET FOR 80 WK (STUDY DURATION: 80 WK), Tumor Site: Type of Lesion: KIDNEY: ADENOCARCINOMA) “active; positive”; (Species: MOUSE, Strain/Sex: ICR/MALE, Route: ORAL, Dose: 0, 15 PPM IN DIET FOR 78 WK (STUDY DURATION: 78 WK), Tumor Site: Type of Lesion: KIDNEY: ADENOCARCINOMA, ADENOMA) “active; positive”; (Species: RAT, Strain/Sex: SPRAGUE-DAWLEY/FEMALE, Route: ORAL, Dose: 0, 0.4, 2, 10 PPM IN DIET FOR 130 WK (STUDY DURATION: 130 WK), Dose: 0, 0.4, 2, 10 PPM IN DIET FOR 130 WK (STUDY DURATION: 130 WK)) “inactive; negative”; (Species: RAT, Strain/Sex: SPRAGUE-DAWLEY/MALE, Route: ORAL, Dose: 0, 0.4, 2, 10 PPM IN DIET FOR 130 WK (STUDY DURATION: 130 WK), Dose: 0, 0.4, 2, 10 PPM IN DIET FOR 130 WK (STUDY DURATION: 130 WK)) “inactive; negative”.

Regarding `CCn1cc(C(=O)O)c(=O)c2cc(F)c(N3CCNCC3)cc21`, the carcinogen call (Species: Rat, Strain/Sex: F344/Male (15/Group), Route: Oral, Dose: 0, 750, 1500 mg/kg daily for 3 wks after 2/3rd partial hepatectomy, from 2 wks after carcinogen dosing, 500 ppm phenobar, Tumor Site: Type of Lesion: Liver) was “inactive; negative”.

Turning to `CCn1c2ccccc2c2cc(N)ccc21`, the carcinogen call is “active; positive” (Species: MOUSE, Strain/Sex: B6C3F1/FEMALE, Route: ORAL, Dose: 0, 800, 1200 PPM IN DIET FOR 78 WK (STUDY DURATION: 95-97 WK), Dose: 0, 800, 1200 PPM IN DIET FOR 78 WK (STUDY DURATION: 95-97 WK), Tumor Site: Type of Lesion: LIVER: HEPATOCELLULAR CARCINOMA); “active; positive” (Species: MOUSE, Strain/Sex: B6C3F1/MALE, Route: ORAL, Dose: 0, 800, 1200 PPM IN DIET FOR 78 WK (STUDY DURATION: 94-96 WK), Dose: 0, 800, 1200 PPM IN DIET FOR 78 WK (STUDY DURATION: 94-96 WK), Tumor Site: Type of Lesion: LIVER: HEPATOCELLULAR CARCINOMA, HEPATOCELLULAR ADENOMA OR CARCINOMA); “active; positive” (Species: RAT, Strain/Sex: F344/FEMALE, Route: ORAL, Dose: 0, 800, 2000 PPM IN DIET FOR 78 WK (STUDY DURATION: 105-110 WK), Dose: 0, 800, 2000 PPM IN DIET FOR 78 WK (STUDY DURATION: 105-110 WK), Tumor Site: Type of Lesion: LIVER: NEOPLASTIC NODULE OR HEPATOCELLULAR CARCINOMA, UTERUS OR ENDOMETRIUM: ADENOCARCINOMA (NOS), EAR (ZYMBAL GLAND): S, Tumor Site: Type of Lesion: LIVER: NEOPLASTIC NODULE OR HEPATOCELLULAR CARCINOMA, UTERUS OR ENDOMETRIUM: ADENOCARCINOMA (NOS), EAR (ZYMBAL GLAND): S); “active; positive” (Species: RAT, Strain/Sex: F344/MALE, Route: ORAL, Dose: 0, 800, 2000 PPM IN DIET FOR 78 WK (STUDY DURATION: 104-109 WK), Dose: 0, 800, 2000 PPM IN DIET FOR 78 WK (STUDY DURATION: 104-109 WK), Tumor Site: Type of Lesion: INTEGUMENTARY SYSTEM: BASAL CELL OR SQUAMOUS CELL CARCINOMA OR SQUAMOUS CELL PAPILLOMA, LIVER: HEPATOCELLULAR CARCINOMA).
